Like-named read-outs stand apart in the source and are kept apart here.
How the values were obtained:
Type in all cases: cell-based
E. coli BW25113 = experiment: MIC, microdilution in 96-well plates; conditions: Escherichia coli, read-out: MIC
Method in brief: (§1)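 Determined via CLSI-guided microdilution: triplicate two-fold compound gradients, a DMSO vehicle column, and cultures seeded 1:10000 in LB from growing cells. Incubation lasted 16-18 hours at 37° C. under shaking, with MIC called as the lowest concentration lacking visible growth.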

Edwardsiella tarda = experiment: MIC, microdilution in 96-well plates
Method in brief: as §1

Streptococcus agalactiae = experiment: MIC, 20-strain panel
Method in brief: as §1

E. coli MG1655 = experiment: MIC, 20-strain panel; conditions: Escherichia coli, read-out: MIC
Method in brief: as §1

E. coli JW5503 (deltolC) = experiment: MIC, 20-strain panel; conditions: Escherichia coli
Method in brief: as §1

[1] = tested on: Staphylococcus epidermidis; experiment: MIC, 20-strain panel
Method in brief: as §1

Shigella flexneri = experiment: MIC, 20-strain panel
Method in brief: as §1

[2] = tested on: Staphylococcus aureus subsp. aureus; experiment: MIC, 20-strain panel; conditions: read-out: MIC
Method in brief: as §1

[3] = tested on: Salmonella enterica subsp. enterica typhimurium; experiment: MIC, 20-strain panel
Method in brief: as §1

[4] = tested on: Klebsiella pneumoniae subsp. pneumoniae; experiment: MIC, 20-strain panel
Method in brief: as §1

Streptococcus pyogenes = experiment: MIC, 20-strain panel
Method in brief: as §1

[5] = tested on: Staphylococcus saprophyticus subsp. saprophyticus; experiment: MIC, 20-strain panel
Method in brief: as §1

[6] = H: Staphylococcus aureus subsp. aureus
[7] = F: Salmonella enterica subsp. enterica Typhimurium
[8] = E: Klebsiella pneumoniae subsp. pneumoniae

Measured: MIC

CC(=O)c1cc(S(=O)(=O)N[C@@H]2CCN(Cc3ccc(OC4CC4)cc3)C2)ccc1C [Compound 133]
> 8 µg/mL: E. coli BW25113; BW25113, E. coli BW25113 | Edwardsiella tarda | Streptococcus agalactiae | E. coli MG1655; MG1655, E. coli MG1655 | E. coli JW5503 (deltolC); E. coli JW5503 (deltolC) | [1] | Shigella flexneri | [2]; Staphylococcus aureus subsp. aureus | [3]; Salmonella enterica subsp. enterica Typhimurium | [4]; Klebsiella pneumoniae subsp. pneumoniae | Streptococcus pyogenes | [5]

COc1ccccc1-c1ccc(CN2CC[C@@H](NS(=O)(=O)c3cccc(C#N)c3)C2)cc1 [Compound 127]
4 µg/mL: E. coli JW5503 (deltolC); C: E. coli JW5503 (deltolC)
> 8 µg/mL: E. coli BW25113; BW25113, B: E. coli BW25113 | Edwardsiella tarda; D: Edwardsiella tarda | Streptococcus agalactiae | E. coli MG1655; MG1655, A: E. coli MG1655 | [1] | Shigella flexneri; G: Shigella flexneri | [2]; [6] | [3]; [7] | [4]; [8] | Streptococcus pyogenes | [5]

O=S(=O)(N[C@@H]1CCN(Cc2ccc(OC3CC3)cc2)C1)c1cc(S(=O)(=O)c2ccccc2)cs1 [Compound 65]
> 8 µg/mL: E. coli BW25113; BW25113, B: E. coli BW25113 | Edwardsiella tarda; D: Edwardsiella tarda | Streptococcus agalactiae | E. coli MG1655; MG1655, A: E. coli MG1655 | E. coli JW5503 (deltolC); C: E. coli JW5503 (deltolC) | [1] | Shigella flexneri; G: Shigella flexneri | [2]; [6] | [3]; [7] | [4]; [8] | Streptococcus pyogenes | [5]

Cc1c(S(=O)(=O)N[C@@H]2CCN(Cc3ccc(-c4ccccc4)cc3)C2)sc2ccc(Cl)cc12 [Compound 82]
> 8 µg/mL: E. coli BW25113; BW25113, B: E. coli BW25113 | Edwardsiella tarda; D: Edwardsiella tarda | Streptococcus agalactiae | E. coli MG1655; MG1655, A: E. coli MG1655 | E. coli JW5503 (deltolC); C: E. coli JW5503 (deltolC) | [1] | Shigella flexneri; G: Shigella flexneri | [2]; [6] | [3]; [7] | [4]; [8] | Streptococcus pyogenes | [5]

O=S(=O)(N[C@@H]1CCN(Cc2ccc(OC3CCOCC3)cc2)C1)c1cccc(OC(F)(F)F)c1 [Compound 39]
1 µg/mL: E. coli JW5503 (deltolC); C: E. coli JW5503 (deltolC)
> 8 µg/mL: E. coli BW25113; BW25113, B: E. coli BW25113 | Edwardsiella tarda; D: Edwardsiella tarda | Streptococcus agalactiae | E. coli MG1655; MG1655, A: E. coli MG1655 | [1] | Shigella flexneri; G: Shigella flexneri | [2]; [6] | [3]; [7] | [4]; [8] | Streptococcus pyogenes | [5]

O=S(=O)(N[C@@H]1CCN(Cc2ccc(-c3ccccc3)cc2)C1)c1cc(F)cc(C(F)(F)F)c1 [Compound 71]
> 8 µg/mL: E. coli BW25113; BW25113, B: E. coli BW25113 | Edwardsiella tarda; D: Edwardsiella tarda | Streptococcus agalactiae | E. coli MG1655; MG1655, A: E. coli MG1655 | [1] | Shigella flexneri; G: Shigella flexneri | [2]; [6] | [3]; [7] | [4]; [8] | [5]
8 µg/mL: Streptococcus pyogenes
4 µg/mL: E. coli JW5503 (deltolC); C: E. coli JW5503 (deltolC)

N#Cc1cccc(S(=O)(=O)N[C@@H]2CCN(Cc3ccc(-c4ccccn4)cc3)C2)c1 [Compound 46]
8 µg/mL: [3]; [7]
> 8 µg/mL: E. coli BW25113; BW25113, B: E. coli BW25113 | Edwardsiella tarda; D: Edwardsiella tarda | Streptococcus agalactiae | E. coli MG1655; MG1655, A: E. coli MG1655 | [1] | Shigella flexneri; G: Shigella flexneri | [2]; [6] | [4]; [8] | Streptococcus pyogenes | [5]
1 µg/mL: E. coli JW5503 (deltolC); C: E. coli JW5503 (deltolC)

Cc1ccc(C(F)(F)F)cc1S(=O)(=O)N[C@@H]1CCN(Cc2ccc(-c3ccccc3)cc2)C1 [Compound 182]
> 8 µg/mL: E. coli BW25113; BW25113, B: E. coli BW25113 | Edwardsiella tarda; D: Edwardsiella tarda | Streptococcus agalactiae | E. coli MG1655; MG1655, A: E. coli MG1655 | Shigella flexneri; G: Shigella flexneri | [2]; [6] | [3]; [7] | [4]; [8] | [5]
4 µg/mL: E. coli JW5503 (deltolC); C: E. coli JW5503 (deltolC) | [1]
~8 µg/mL: Streptococcus pyogenes

O=S(=O)(N[C@@H]1CCN(Cc2ccc(-c3ccccn3)cc2)C1)c1cccc(OC(F)(F)F)c1 [Compound 48]
> 8 µg/mL: E. coli BW25113; BW25113, B: E. coli BW25113 | Edwardsiella tarda; D: Edwardsiella tarda | Streptococcus agalactiae | E. coli MG1655; MG1655, A: E. coli MG1655 | [1] | Shigella flexneri; G: Shigella flexneri | [2]; [6] | [3]; [7] | [4]; [8] | Streptococcus pyogenes | [5]
1 µg/mL: E. coli JW5503 (deltolC); C: E. coli JW5503 (deltolC)

O=S(=O)(N[C@@H]1CCN(Cc2ccn(-c3ccccc3)n2)C1)c1cccc(C(F)(F)F)c1 [Compound 125]
> 8 µg/mL: E. coli BW25113; BW25113, B: E. coli BW25113 | Edwardsiella tarda; D: Edwardsiella tarda | Streptococcus agalactiae | E. coli MG1655; MG1655, A: E. coli MG1655 | E. coli JW5503 (deltolC); C: E. coli JW5503 (deltolC) | [1] | Shigella flexneri; G: Shigella flexneri | [2]; [6] | [3]; [7] | [4]; [8] | Streptococcus pyogenes | [5]

CC(C)Oc1ccc(CN2CC[C@@H](NS(=O)(=O)c3cc(Cl)cc(C(F)(F)F)c3)C2)cc1 [Compound 92]
> 8 µg/mL: E. coli BW25113; BW25113, B: E. coli BW25113 | Edwardsiella tarda; D: Edwardsiella tarda | Streptococcus agalactiae | E. coli MG1655; MG1655, A: E. coli MG1655 | [1] | Shigella flexneri; G: Shigella flexneri | [2]; [6] | [3]; [7] | [4]; [8] | Streptococcus pyogenes | [5]
8 µg/mL: E. coli JW5503 (deltolC); C: E. coli JW5503 (deltolC)

From patent publication US10253039B2, “Inhibitors of bacterial DNA gyrase with efficacy against gram-negative bacteria” (priority 2014, dated 2019)
